According to patent US6667313B1, “8-substituted-6-triflouromethyl-9-pyrido [3,2-G] quinoline compounds as androgen receptor modulators” (Ligand Pharmaceuticals Inc., priority 1999, dated 2003):
Where two headings read alike, the source gives them in different places.

Tests used:
human AR [1] = target: T1, human AR (Homo sapiens, UniProt P10275); experiment: Co-transfection assay, AR agonist, CV-1 cells; format: cell-based; conditions: for AR Agonist CV-1 Cells Efficacy (%): percent maximal response relative to reference agonist DHT
T1 sequence (P10275 1-920): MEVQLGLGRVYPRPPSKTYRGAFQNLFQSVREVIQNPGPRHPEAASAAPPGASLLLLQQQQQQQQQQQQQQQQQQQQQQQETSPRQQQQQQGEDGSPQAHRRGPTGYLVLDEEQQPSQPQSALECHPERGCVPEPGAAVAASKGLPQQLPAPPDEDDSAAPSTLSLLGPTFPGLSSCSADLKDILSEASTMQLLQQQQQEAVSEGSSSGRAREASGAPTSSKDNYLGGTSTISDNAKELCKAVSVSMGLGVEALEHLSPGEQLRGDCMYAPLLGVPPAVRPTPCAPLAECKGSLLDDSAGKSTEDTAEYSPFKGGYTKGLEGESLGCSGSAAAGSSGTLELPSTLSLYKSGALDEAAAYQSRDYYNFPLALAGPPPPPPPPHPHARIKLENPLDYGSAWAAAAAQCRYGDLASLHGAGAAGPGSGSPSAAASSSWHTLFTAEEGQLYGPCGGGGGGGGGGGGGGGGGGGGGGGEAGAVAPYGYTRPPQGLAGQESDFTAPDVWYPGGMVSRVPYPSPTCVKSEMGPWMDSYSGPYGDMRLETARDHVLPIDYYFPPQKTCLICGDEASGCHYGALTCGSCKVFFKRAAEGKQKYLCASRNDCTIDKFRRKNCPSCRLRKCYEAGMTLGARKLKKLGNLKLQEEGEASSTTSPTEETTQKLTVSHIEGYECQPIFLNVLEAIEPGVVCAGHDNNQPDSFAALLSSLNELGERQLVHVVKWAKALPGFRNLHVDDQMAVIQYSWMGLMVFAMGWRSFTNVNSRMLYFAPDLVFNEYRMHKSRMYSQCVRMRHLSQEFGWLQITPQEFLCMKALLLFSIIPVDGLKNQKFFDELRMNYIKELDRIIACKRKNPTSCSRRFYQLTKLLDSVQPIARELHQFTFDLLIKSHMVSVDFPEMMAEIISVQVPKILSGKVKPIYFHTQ
Excerpt: (§1) The reporter plasmid, MTV-LUC, contains the cDNA for firefly luciferase (LUC) under control of themouse mammary tumor virus (MTV) long terminal repeat, a conditional promoter containing an androgen response element. See e.g., Berger et al. supra. In addition, pRS-β-Gal, coding for constitutive expression of E. coli β-galactosidase (β-Gal), was included as an internal control for evaluation of transfection efficiency and compound toxicity.
(§2) Three to four replicates were used for each sample.
(§3) After 40 hours, the cells were washed with PBS, lysed with a Triton X-100-based buffer and assayed for LUC and β-Gal activities using a luminometer or spectrophotometer, respectively. For each replicate, the normalized response (NR) was calculated as:
(§4) where β-Gal rate=β-Ga·1×10^−5/β-Gal incubation time.

human AR [2] = target: T1, human AR; experiment: Co-transfection assay, AR antagonist, CV-1 cells (in presence of DHT); format: cell-based; conditions: for AR Antagonist CV-1 Cells Efficacy (%): percent maximal inhibition, DHT at EC50
Excerpt: as §1, §2, §3, §4

human AR [3] = target: T1, human AR; experiment: AR whole cell competitive binding assay (3H-DHT), COS-1 cells
Experimental: AR Binding: For the whole cell binding assay, COS-1 cells in 96-well microtiter plates containing DMEM-10% FBS were transfected as described above with the following plasmid DNA: pRShAR (2 ng/well), pRS-β-Gal (50 ng/well) and pGEM (48 ng/well). Six hours after transfection, media was removed, the cells were washed with PBS and fresh media was added. The next day, the media was changed to DMEM-serum free to remove any endogenous ligand that might be complexed with the receptor in the cells.
Three replicates were used for each sample. […] The remaining media was removed, the cells were washed three times with PBS to remove unbound ligand, and cells were lysed with a Triton X-100-based buffer.
For the saturation analyses, the difference between the total binding and the nonspecific binding, normalized by the β-Gal rate, was defined as specific binding.
After correcting for non-specific binding, IC50 values were determined. […] The IC50 value was determined graphically from a log-logit plot of the data. The Ki values were determined by application of the Cheng-Prusoff equivuation to the IC50 values, the labeled ligand concentration and the Kd of the labeled ligand.

| SMILES | EC50 (human AR [1]) [nM] | AR Agonist CV-1 Cells Efficacy (%) (human AR [1]) | IC50 (human AR [2]) [nM] | AR Antagonist CV-1 Cells Efficacy (%) (human AR [2]) | Ki (human AR [3]) [nM] | IC50 (human AR [2]; read-out: AR Antagonist CV-1 Cells Potency) [nM] | Ki (human AR [3]; COS-1 cells, 1 nM 3H-DHT, Cheng-Prusoff, read-out: AR Binding KI) [nM] |
| --- | --- | --- | --- | --- | --- | --- | --- |
| CCC1CCNc2cc3nc(Cl)cc(C(F)(F)F)c3cc21 (racemic) [Compound 108, (R/S)-8-Chloro-4-ethyl-1,2,3,4-tetrahydro-6-trifluoromethyl-9-pyrido[3,2-g]guinoline] | 73 ± 12 | 36 ± 5 | 50 ± 27 | 28 ± 8 | 81 ± 13 | – | – |
| CCC1CCNc2cc3nc(Cl)c(F)c(C(F)(F)F)c3cc21 (racemic) [Compound 109, (R/S)-8-Chloro-4-ethyl-7-fluoro-1,2,3,4-tetrahydro-6-trifluoromethyl-9-pyrido[3,2-g]guinoline] | 89 ± 26 | 35 ± 12 | 39 ± 23 | 51 ± 9 | 119 ± 65 | – | – |
| CCC1CCNc2cc3nc(F)cc(C(F)(F)F)c3cc21 (racemic) [Compound 116, (R/S)-4-Ethyl-8-fluoro-1,2,3,4-tetrahydro-6-trifluoromethyl-9-pyrido[3,2-g]quinoline] | 37 ± 9 | 60 ± 4 | – | 0 | 5 | – | – |
| CCC1CCNc2cc3nc(Br)cc(C(F)(F)F)c3cc21 (racemic) [Compound 121, (R/S)-8-Bromo-4-ethyl-1,2,3,4-tetrahydro-6-trifluoromethyl-9-pyrido[3,2-g]quinoline] | 22 ± 14 | 53 ± 15 | – | 8 ± 12 | 55 | – | – |
| CCC1CCNc2cc3nccc(C(F)(F)F)c3cc21 (racemic) [Compound 125, (R/S)-4-Ethyl-1,2,3,4-tetrahydro-6-trifluoromethyl-9-pyrido[3,2-g]quinoline] | – | 9 ± 7 | 56 ± 17 | 93 ± 1 | 93 | – | – |
| CCC1CCNc2cc3nc(C#N)cc(C(F)(F)F)c3cc21 (racemic) [Compound 129, (R/S)-8-Cyano-4-ethyl-1,2,3,4-tetrahydro-6-trifluoromethyl-9-pyrido[3,2-g]quinoline] | – | – | 15 ± 5 | 56 ± 25 | 21 | – | – |
| CCC1CCN(C)c2cc3nc(C#N)cc(C(F)(F)F)c3cc21 (racemic) [Compound 130, (R/S)-8-Cyano-4-ethyl-1,2,3,4-tetrahydro-1-methyl-6-trifluoromethyl-9-pyrido[3,2-g]quinoline] | – | 2 | 782 ± 546 | 89 ± 1 | 787 | – | – |
| CC1(C)CCc2cc3c(cc2N1)N(C(=O)c1ccccc1)C(C#N)C=C3C(F)(F)F (racemic) [Compound 131, (R/S)-9-Benzoyl-8-cyano-1,2,3,4,8,9-hexahydro-2,2-dimethyl-6-trifluoromethyl-9-pyrido[3,2-g]quinoline] | – | 0 | 63 | 91 | > 1000 | – | – |
| Cc1ccc(C(=O)N2c3cc4c(cc3C(C(F)(F)F)=CC2C#N)CCC(C)(C)N4)cc1 (racemic) [Compound 132, (R/S)-8-Cyano-1,2,3,4,8,9-hexahydro-2,2-dimethyl-9-p-toluoyl-6-trifluoromethyl-9-pyrido[3,2-g]quinoline] | – | – | – | 89 | – | 147 | 863 |
| C[S+]([O-])c1nc2cc3c(cc2c(C(F)(F)F)c1F)CCC(C)(C)N3 (racemic) [Compound 137, (R/S)-7-Fluoro-1,2,3,4-tetrahydro-2,2-dimethyl-6-trifluoromethyl-8-methylsulfinyl-9-pyrido[3,2-g]quinoline] | – | 10 | 1340 | 84 | > 1000 | – | – |
| CCC1CCNc2cc3nc(C(F)(F)F)cc(C(F)(F)F)c3cc21 (racemic) [Compound 149, (R/S)-4-Ethyl-1,2,3,4-tetrahydro-6,8-di(trifluoromethyl)-9-pyrido[3,2-g]quinoline] | – | – | 117 ± 31 | – | 301 | – | – |
